Test in all cases: MIC, Steers agar-dilution method, Mueller-Hinton
Assay type in all cases: cell-based

Experiment [1] deals with Pseudomonas aeruginosa I.A. The source says:
(§1) Illustrated below is a table showing the minimal inhibitory concentrations (MIC's) of Kanamycin A together with those of one of the trisaccharides synthesized (Example I) against a variety of Gram-positive and Gram-negative bacteria as obtained by the Steers agar-dilution method with Mueller-Hinton agar medium.
(§2) In vitro activity of Kanamycin A and compound (Example LI). MIC's in
(§3) MuellerHinton broth pH 7.2.

The test system of a further experiment is Salmonella sui-pestifer.
Text: as §1, §2, §3

The next experiment has as its system Proteus mirabilis.
Text: as §1, §2, §3

The subject of another experiment is Proteus morganii. The conditions noted are these: Morganella morganii.
Text: as §1, §2, §3

For experiment [2], the system named is Micrococcus pyogenes aureus 6539 P. The settings on record: Staphylococcus aureus, AUREUS6539P.
Text: as §1, §2, §3

The next experiment relates to Escherichia coli R 1513. The settings on record: R1513, MuellerHinton broth pH 7.2.
Text: as §1, §2, §3

Experiment [3] deals with Pseudomonas aeruginosa D 15.
Text: as §1, §2, §3

The test system of experiment [4] is Pseudomonas aeruginosa s.p.
Text: as §1, §2, §3

The test system of a further experiment is Proteus rettgeri. The conditions noted are these: Providencia rettgeri.
Text: as §1, §2, §3

Experiment [5] deals with Staphylococcus pyogenes Smith A. The conditions noted are these: Staphylococcus aureus.
Text: as §1, §2, §3

A further experiment concerns Salmonella tiphymurium.
Text: as §1, §2, §3

Values after ≈ are worked out from the molar mass of the structure shown. Read-outs that look alike come from different tables or passages of the source.

`NCC1OC(OC2CCC(OC3C(N)CC(N)C(O)C3O)OC2CN)CCC1O` (stereo not drawn) [Example LI, 4-O-[4-O-(6-amino-2,3,6-trideoxy-α-O-erythro-hexopyranosyl)-6-amino-2,3,6-trideoxy-αO-erythro-hexopyranosyl]-2-deoxystreptamine disulphate]: the minimal inhibitory concentration (MIC) (as a rule, the lowest concentration that inhibits growth of the organism) came out at 32 µg/mL in experiment [1] (Pseudomonas aeruginosa I.A., MuellerHinton broth pH 7.2, read-out: MIC); 32 µg/mL in the experiment with Salmonella sui-pestifer (Salmonella sui-pestifer, MuellerHinton broth pH 7.2, read-out: MIC); 0.4 µg/mL in the experiment on Proteus mirabilis (MuellerHinton broth pH 7.2, read-out: MIC); 0.2 µg/mL with Proteus morganii (Proteus morganii, MuellerHinton broth pH 7.2, read-out: MIC); 0.4 µg/mL in experiment [2] (Micrococcus pyogenes aureus 6539 P, MuellerHinton broth pH 7.2, read-out: MIC); 32 µg/mL in the experiment with Escherichia coli R 1513. Also, the MIC in [3] (D15, Pseudomonas aeruginosa D 15, MuellerHinton broth pH 7.2, read-out: MIC) is 8 µg/mL; in experiment [4] (Pseudomonas aeruginosa s.p., MuellerHinton broth pH 7.2, read-out: MIC), 16 µg/mL; in the experiment with Proteus rettgeri (Proteus rettgeri, MuellerHinton broth pH 7.2, read-out: MIC), 0.2 µg/mL; in experiment [5] (Staphylococcus pyogenes Smith A, MuellerHinton broth pH 7.2, read-out: MIC), 0.4 µg/mL; in the experiment on Salmonella tiphymurium (Salmonella tiphymurium, MuellerHinton broth pH 7.2, read-out: MIC) it was 32 µg/mL.

`NCC1OC(OC2C(N)CC(N)C(OC3OC(CO)C(O)C(N)C3O)C2O)C(O)C(O)C1O` (stereo not shown) [Kanamycin A]: the MIC in experiment [1] (Pseudomonas aeruginosa, pH 7.2) was determined as 100 µg/mL (≈ 206 µM); against Salmonella sui-pestifer (Salmonella, pH 7.2) it was 32 µg/mL (≈ 66 µM); against Proteus mirabilis (pH 7.2), 2 µg/mL (≈ 4.13 µM); with Proteus morganii (pH 7.2), 0.8 µg/mL (≈ 1.65 µM); in experiment [2] (pH 7.2) it was 0.8 µg/mL (≈ 1.65 µM); in the experiment with Escherichia coli R 1513 it was 100 µg/mL (≈ 206 µM). The MIC came out at 25 µg/mL (≈ 51.6 µM) in experiment [3] (Pseudomonas aeruginosa, D15, pH 7.2); 100 µg/mL (≈ 206 µM) in experiment [4] (Pseudomonas aeruginosa, pH 7.2); 0.4 µg/mL (≈ 0.826 µM) against Proteus rettgeri (pH 7.2); 0.8 µg/mL (≈ 1.65 µM) in [5] (pH 7.2); 100 µg/mL (≈ 206 µM) against Salmonella tiphymurium (Salmonella, pH 7.2).

The values are drawn from US4208531A, “Synthetic aminoglycosides” (priority 1976, dated 1980).
